# From the supplement of paper PMC3974653
# Counter-ions that a name gives are not always drawn.
# Legend:
# [1] = test system: MTT (mouse pheochromocytoma); test: IC50 of cell viability (ATP content); AC50 where efficacy is positive; settings: (24 or 48 h)
# [2] = test system: MTT (mouse pheochromocytoma); test: efficacy (maximal response) relative to doxorubicin = -100% and DMSO = 0%; higher = less inhibition of viability; settings: (24 or 48 h)
SMILES,IC50 of cell viability [1],efficacy [2]
CN[C@H]1CC[C@@H](c2ccc(Cl)c(Cl)c2)c2ccccc21 [Sertraline hydrochloride (Zoloft)],15 µM,-39.9%
CC(C)COC(=O)OCN1C(=O)CN(CCN2CC(=O)N(COC(=O)OCC(C)C)C(=O)C2)CC1=O [Sobuzoxane],0.841 µM,-56.1%
O=C(CCCCCCC(=O)Nc1ccccc1)NO [Suberoylanilide Hydroxamic Acid],0.0531 µM,-43.5%
O=c1n(CC2CO2)c(=O)n(CC2CO2)c(=O)n1CC1CO1 (stereo not drawn) [TEROXIRONUM],4.22 µM,-43.7%
C[CH2][Hg][S]c1ccccc1C(=O)[O-].[Na+] [THIMEROSAL],2.99 µM,-86.9%
CCOC(=O)c1c(N)sc2c1CCN(Cc1ccccc1)C2 [TINORIDINE HYDROCHLORIDE],11.9 µM,-45.5%
C[N+]12CCCC[C@@H]1CCC(=C(c1cccs1)c1cccs1)C2 (stereo partly drawn) [TIQUIZIUM BROMIDE],1.88 µM,-51.7%
Cl.CC[C@@]1(O)C(=O)OCC/2=C1/C=C/3N(CC4=C3N=C5C=CC(=C(CN(C)C)C5=C4)O)C2=O [TOPOTECAN HYDROCHLORIDE],4.73 µM,-89.7%
COc1cc(NCc2ccc3nc(N)nc(N)c3c2C)cc(OC)c1OC [TRIMETREXATE GLUCURONATE],0.376 µM,-50.7%
Cc1cc(-c2ccc(/N=N/c3c(S(=O)(=O)[O-])cc4cc(S(=O)(=O)[O-])cc(N)c4c3O)c(C)c2)ccc1/N=N/c1c(S(=O)(=O)[O-])cc2cc(S(=O)(=O)[O-])cc(N)c2c1O [TRYPAN BLUE],2.37 µM,-37.4%
c1ccc2[nH]c(-c3cscn3)nc2c1 [Thiabendazole],9.44 µM,-40%
OC[C@H]1O[C@@H](n2cnc3c(S)ncnc32)[C@H](O)[C@@H]1O [Thionosine],18.8 µM,-85.4%
O=C(Nc1ccc(Br)cc1)c1cc(Br)c(Br)s1 [Tibrofan],26.6 µM,-64.5%
CCCOc1ccc2nc(NC(=O)OC)sc2c1 [Tioxidazole],11.9 µM,-55.6%
O=C(Nc1ccc(Cl)cc1)Nc1ccc(Cl)c(Cl)c1 [Triclocarban],26.6 µM,-121%
COc1cc2c(Nc3ccc(Br)cc3F)ncnc2cc1OCC1CCN(C)CC1 [VANDETANIB],26.6 µM,-102%
CCCCC(=O)OCC(=O)[C@]1(O)Cc2c(O)c3c(c(O)c2[C@H](OC2CC(NC(=O)C(F)(F)F)C(O)C(C)O2)C1)C(=O)c1c(OC)cccc1C3=O (stereo partly drawn) [Valrubicin],16.8 µM,-78%
[Zn++].[O-]N1\C=C/C=C\C1=S.[O-]N2\C=C/C=C\C2=S [Zinc pyrithione],2.11 µM,-90.6%
OCCN1CCN(CC/C=C2/c3ccccc3Sc3ccc(C(F)(F)F)cc32)CC1 [cis-(Z)-FLUPENTHIXOL],23.7 µM,-85.6%
